Reference: US9504674B2, “TrkB agonists and methods of use” (EMORY UNIVERSITY, priority 2010, dated 2016)

How the values were obtained:
active caspase-3 [1] = assay: Active caspase-3 ELISA in glutamate-treated cortical neurons; type: cell-based, rat; details: 30 min pretreatment, then glutamate 16 h; for caspase-3 activation after glutamate: 50 nM or higher
Procedure: 4′-Dimethylamino-7,8-dihydroxyflavone prevents neurons from apoptosis in a TrkB-dependent manner. Cortical neurons were prepared from E16 rat embryonic. The neurons were pretreated with different doses of compounds as indicated for 30 min, followed by 50 μM glutamate for 16 h. The cell lysates were analyzed by active caspase-3 ELISA.
(§1) To quantitatively compare the anti-apoptotic activity by these two TrkB agonists, cortical neurons were pretreated with various concentrations of 4′-DMA-7,8-DHF and 7,8-DHF for 30 min, followed by […] for 16 h. Cell lysates were quantitatively analyzed with an active caspse-3 ELISA. […] To investigate whether these compounds exert any neuroprotective effects in animals, both compounds (5 mg/kg) were orally injected into mice. At 0, 2 h or 6 h, kainic acid (KA)(20 mg/kg) was administered intraperitoneally. At 2 h, mice were sacrificed and hippocampal regions were prepared. […] This kinetic spectrum tightly coupled to the TrkB activation status observed when treated with 7,8-DHF (FIG. 3C, right panel).

active caspase-3 [2] = assay: Kainic acid (KA)-induced neuronal apoptosis in mice (active caspase-3 immunoblotting); type: in vivo, mouse; details: 5 mg/kg oral
Procedure: C57BL/6J mice were orally administrated with 5 mg/kg of 4′-DMA-7,8-DHF and 7,8-DHF; at different time points, the mice were ip injected with 20 mg/kg KA for 2 h. The brain lysates were analyzed by immunoblotting with anti-p-TrkB, antiactive caspase-3 antibodies, respectively.
Male C57BL/6 mice aged of 60 days were orally injected with a single dose of 4′-DMA-7,8-DHF or 7,8-DHF ([…]). KA (20 mg/kg) (Sigma, MO) was i.p. injected. Animals were continually monitored for 2 h for the onset of seizure activity. At 0, 4 and 8 h following TrkB agonist treatment, the animals were sacrificed and the hippocampal section lysates were analyzed by immunoblotting with p-TrkB, active caspase-3 and total TrkB antibodies.
as §1

TrkB = target: T1, TrkB (Mus musculus, UniProt P15209); assay: TrkB activation in brain of chronically treated mice (immunoblotting p-TrkB 817, immunohistochemistry p-TrkB Y816); type: in vivo; details: for TrkB activation in mouse brain after chronic treatment: 5 mg/kg oral 21 days, brain lysates, immunoblotting p-TrkB 817; for TrkB activation in the dentate gyrus: 5 mg/kg oral, after 21 days treatment, immunohistochemistry
T1 construct: from tissue; host or cells: brain of wild-type C57BL/6J mice
T1 sequence (P15209 32-821): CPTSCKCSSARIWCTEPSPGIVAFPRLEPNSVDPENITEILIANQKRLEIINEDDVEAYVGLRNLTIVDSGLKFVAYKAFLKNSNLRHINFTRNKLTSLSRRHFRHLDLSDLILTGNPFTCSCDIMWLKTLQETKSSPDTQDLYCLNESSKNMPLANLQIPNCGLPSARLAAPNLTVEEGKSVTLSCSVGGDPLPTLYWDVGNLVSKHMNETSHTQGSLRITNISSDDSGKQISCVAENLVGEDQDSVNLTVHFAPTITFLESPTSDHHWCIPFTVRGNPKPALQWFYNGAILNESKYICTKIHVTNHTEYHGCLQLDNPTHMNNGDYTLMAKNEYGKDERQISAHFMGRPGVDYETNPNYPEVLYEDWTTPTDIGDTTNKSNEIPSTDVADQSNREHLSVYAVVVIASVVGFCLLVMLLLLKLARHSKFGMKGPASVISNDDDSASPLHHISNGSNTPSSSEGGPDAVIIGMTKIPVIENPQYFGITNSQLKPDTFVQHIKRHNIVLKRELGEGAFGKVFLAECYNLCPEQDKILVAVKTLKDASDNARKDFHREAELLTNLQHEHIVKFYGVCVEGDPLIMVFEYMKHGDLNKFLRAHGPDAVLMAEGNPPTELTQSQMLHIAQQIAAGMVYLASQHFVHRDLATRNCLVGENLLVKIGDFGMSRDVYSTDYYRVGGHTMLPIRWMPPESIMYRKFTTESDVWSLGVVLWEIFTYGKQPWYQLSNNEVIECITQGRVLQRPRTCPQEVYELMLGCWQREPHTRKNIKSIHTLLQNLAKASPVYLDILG
Procedure: Paraffin section were deparaffinized in xylene and rehydrated gradient ethanol solution. Samples were boiled in 10 mM sodium citrate buffer for 20 min for antigen retrieval purpose. Brain sections were incubated with anti-TrkB (BD biosciences, San Jose, Calif.) 1:50, and anti-p-TrkB Y816 was used at 1:300 dilution. Secondary antibody were applied using antirabbit-Alexa 594 (red), antimouse-FITC (green). DAPI (blue) was used for nuclear staining.
(§2) The brain lysates from above chronically treated mice were analyzed by immunoblotting with anti-p-TrkA 794 and p-TrkB 817.
Brain tissues were fixed in 4% paraformaldehyde overnight followed by paraffin embedding. Sections of […] were cut. For immunohistochemical staining, brain sections were deparaffinized in xylene and rehydrated in graded alcohols. Endogenous peroxidase activity was blocked by 3% hydrogen peroxide for 5 minutes and all slides were boiled in 10 mM sodium citrate buffer (pH 6.0) for 10 minutes. Phosphorylated Trk B816 and Trk B were detected using specific antibodies. Paraffin section were deparaffinized in xylene and rehydrated gradient ethanol solution. Samples were boiled in 10 mM sodium citrate buffer for 20 min for antigen retrieval purpose. Brain sections were incubated with anti-TrkB (BD biosciences, San Jose, Calif.) 1:50, p-TrkB 1:300 dilution. Secondary antibodies were applied using anti-rabbit-Alexa 594 (red), anti-mouse-FITC (green). DAPI (blue) was used for nuclear staining
Administration of chronic, but not acute, monoamine antidepressant drugs enhances adult neurogenesis in dentate gyrus of rodents and non-human primates, while blocking neurogenesis by irradiation attenuates the behavioral antidepressant-like effects of these drugs in some rodent strains. […] Ablation of TrkB specifically in hippocampal neural progenitor cells prevents chronic antidepressant-induced neurogenesis and renders the mice behaviorally non-responsive to chronic antidepressant treatment. To test whether increasing TrkB activation by these small agonists would elevate the neurogenesis, adult male C57BL/6J mice were orally injected with either vehicle, 7,8-DHF, or 4′-DMA-7,8-DHF (5 mg/kg) for 21 days. At the end of treatment (day 21), animals were injected with BrdU (50 mg/kg, intraperitoneally) to label dividing cells and were sacrificed 2 h later. BrdU immunohistochemistry was used to assess progenitor proliferation (FIG. 4A). […] Therefore, chronic treatment with TrkB agonists promotes neurogenesis in the hippocampus of mice.
(§3) Accumulating evidence supports that BDNF plays a role in mediating therapeutic effects of antidepressants. Infusion of exogenous BDNF into hippocampus or brain stem has anti-depressant-like behavioral effect. A forced swim test is broadly used for screening of potential antidepressant drugs and is widely used to measure antidepressant activity. To explore whether 4′-DMA-7,8-DHF and 7,8-DHF have any antidepressant effect like BDNF, a forced swim test was conducted after chronic treatment of the mice for 21 days via oral injection.
(§4) BDNF/TrkB signaling plays an role in mediating antidepressants' therapeutic effects. A forced swim test is broadly used for screening of potential antidepressant drugs and is widely used to measure antidepressant activity. To explore whether imidazole flavanoid and compound i have any antidepressant effect like BDNF, a forced swim test was conducted after chronic treatment of the mice for 21 days via oral administration.

TrkA = target: T2, TrkA (Mus musculus, UniProt Q3UFB7); assay: TrkA activation in brain of chronically treated mice (immunoblotting p-TrkA 794); type: in vivo; details: 5 mg/kg oral 21 days, brain lysates
T2 construct: from tissue; host or cells: brain of chronically treated C57BL/6J mice
T2 sequence (Q3UFB7 34-799): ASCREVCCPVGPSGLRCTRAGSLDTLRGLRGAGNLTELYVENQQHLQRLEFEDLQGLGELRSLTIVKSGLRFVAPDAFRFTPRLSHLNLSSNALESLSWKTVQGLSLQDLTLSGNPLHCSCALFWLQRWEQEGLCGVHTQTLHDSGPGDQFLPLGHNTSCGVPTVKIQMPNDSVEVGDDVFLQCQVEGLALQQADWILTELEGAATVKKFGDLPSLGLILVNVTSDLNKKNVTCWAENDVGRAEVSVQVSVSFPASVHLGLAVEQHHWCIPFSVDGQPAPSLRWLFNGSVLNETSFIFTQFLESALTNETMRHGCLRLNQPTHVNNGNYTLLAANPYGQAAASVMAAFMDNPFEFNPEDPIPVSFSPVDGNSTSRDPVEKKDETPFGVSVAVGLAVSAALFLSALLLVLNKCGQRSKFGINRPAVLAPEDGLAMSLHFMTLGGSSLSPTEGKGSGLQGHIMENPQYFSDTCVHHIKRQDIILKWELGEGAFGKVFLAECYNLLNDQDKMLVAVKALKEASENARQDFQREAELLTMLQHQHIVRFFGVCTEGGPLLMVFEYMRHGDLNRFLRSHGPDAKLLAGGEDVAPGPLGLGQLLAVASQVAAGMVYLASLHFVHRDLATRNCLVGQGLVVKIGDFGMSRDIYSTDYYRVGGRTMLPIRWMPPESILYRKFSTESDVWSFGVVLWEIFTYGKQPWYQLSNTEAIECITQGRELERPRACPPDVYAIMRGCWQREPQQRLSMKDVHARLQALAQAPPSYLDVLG
Procedure: as §2, §3, §4

Structure (SMILES) | caspase-3 activation after glutamate (active caspase-3 [1]) | KA-induced caspase-3 activation at 4 h (active caspase-3 [2]; KA 20 mg/kg i.p., 4 h) | active caspase-3 at 8 h (active caspase-3 [2]; KA 20 mg/kg i.p., 8 h) | TrkB activation in mouse brain after chronic treatment (TrkB) | TrkB activation in the dentate gyrus (TrkB) | TrkA activation in mouse brain after chronic treatment (TrkA) | TrkB activation in mouse brain after chronic treatment (TrkB; listed as imidazole flavanoid) | TrkB activation in mouse brain after chronic treatment (TrkB; listed as imidazole-derivative) | inhibition of caspase-3 activation after glutamate (active caspase-3 [1]; 10 nM) | KA-induced neuronal apoptosis over time after dosing (active caspase-3 [2]; KA 20 mg/kg i.p. at 0, 2 h or 6 h, hippocampal lysates)
O=c1cc(-c2ccccc2)oc2c(O)c(O)ccc12 [7,8-DHF, 7,8-dihydroxyflavone, reference compound] | substantially blocked caspase-3 activation | reduced | slightly increased | evidently provoked TrkB | markedly activated | not TrkA activation | – | – | – | –
CN(C)c1ccc(-c2cc(=O)c3ccc4nc[nH]c4c3o2)cc1 [compound m, 8-(4-(dimethylamino)phenyl)chromeno[7,8-d]imidazol-6(1H)-one] | – | – | – | – | – | not TrkA activation | evidently provoked TrkB | stronger activity than compound i | – | –
CN(C)c1ccc(-c2cc(=O)c3ccc(O)c(O)c3o2)cc1 [4′-DMA-7,8-DHF, 4′-dimethylamino-7,8-dihydroxyflavone] | substantially blocked caspase-3 activation | – | – | evidently provoked TrkB | markedly activated | not TrkA activation | – | – | more robust inhibitory effect than 7,8-DHF | gradually decreased over time
